From US12115208B2, “Small-molecule adjuvants for antibiotics to address antibiotic resistance” (HIGH POINT UNIVERSITY, priority 2017, dated 2024)
Like-named read-outs stand apart in the source and are kept apart here.

Key:
[1] = system: S. epidermidis ATCC 49461 biofilm; test: Biofilm inhibition, crystal violet assay; type: cell-based, Staphylococcus epidermidis; conditions: read-out: Inhibition of biofilm formation IC50
Description: A standard static crystal violet assay was used to quantify biofilm inhibition.^45 Cultures of S. aureus or S. epidermidis were grown overnight in TSBG (tryptic soy broth with 5% glucose) at 37° C. with shaking. These cultures were used to inoculate fresh TSBG to a calculated optical density of 0.01 at 600 nm (OD600). […] Untreated aliquots were used as a positive control and water served as a negative control. 100 μl of these suspensions were added to the wells of a 96-well polyvinylchloride microtiter plate. […] After incubation, media was discarded and the plates were washed with water to remove non-adherent cells. Adherent biofilms were stained with 110 μl of crystal violet (0.1% in water) and incubated at room temperature for thirty minutes. The crystal violet staining solution was discarded and plates were washed with water to remove excess stain. The resulting stained biofilms were solubilized with 200 μL of 95% ethanol for 10 minutes. 125 μl of the ethanol solutions were transferred to a clear polystyrene microtiter plate for evaluation. Absorbance at 540 nm was recorded using a BioTek Synergy H1 microplate reader. The absorbance of the negative control lanes was subtracted from the experimental values to account for background staining. Percent inhibition was calculated by comparison of the absorbance values of control versus treated wells under identical conditions.

S. aureus 43300 (MRSA) = test: Antibiotic repotentiation (antibiotic MIC with/without compound); type: cell-based, Staphylococcus aureus; conditions: S. aureus 43300 (MRSA); for Fold Reduction: oxacillin MIC
Description: The overnight culture was diluted into fresh CAMHB to a concentration of 5×10^5 CFU/ml. […] On the same plate, a standard microdilution MIC with the tested antibiotics and no added compound was also performed to compare the antibiotic MIC in the presence and absence of compound. […] Fold reductions were calculated by dividing the MIC of the antibiotic without compound by the MIC of the antibiotic in the presence of compound.
(§1) The compounds were then analyzed for antibiotic repotentiation activity. […] The tested strains included USA300, which is a common and particularly virulent strain of community-acquired MRSA.

[2] = system: S. aureus ATCC 43300 (MRSA); test: Minimum inhibitory concentration, broth microdilution; type: cell-based, Staphylococcus aureus; conditions: compound alone; S. aureus ATCC 43300 (MRSA); CAMHB, 18 h; read-out: MIC
Description: as §1

[3] = Staphylococcus epidermidis, ATCC49461, 30 h

Cc1cnc2c(ccc3c(C)c(C)cnc32)c1C [Compound V-14] was tested, and the IC50 ([1]; 30 h) was over 100 µM, the “Oxacillin MIC” value (S. aureus 43300 (MRSA); +0.78 μM compound) was 32 µg/mL and the “Fold Reduction” value (S. aureus 43300 (MRSA); +0.78 μM compound) was 1. It also gave an MIC [2] of 3.125 µM.

Brc1cc2ccccc2c2ccccc12 [Compound V-3] was tested, and the IC50 ([1]; 30 h) was over 100 µM, the “Oxacillin MIC” value (S. aureus 43300 (MRSA); +75 μM compound) was 8 µg/mL and the “Fold Reduction” value (S. aureus 43300 (MRSA); +75 μM compound) was 4. It also gave an MIC [2] of over 250 µM.

Cc1ccc2ccc3ccc(C)nc3c2n1 [Compound V-9] was tested, and the IC50 ([1]; 30 h) was under 5 µM, the “Oxacillin MIC” value (S. aureus 43300 (MRSA); +31.25 μM compound) was 32 µg/mL and the “Fold Reduction” value (S. aureus 43300 (MRSA); +31.25 μM compound) was 1. For the same molecule, the MIC [2] was 125 µM.

For NC(=O)N1c2ccccc2C=Cc2ccccc21 [Compound I-2], the “Oxacillin MIC” value (S. aureus 43300 (MRSA); +50 μM compound) was 16 µg/mL and the “Fold Reduction” value (S. aureus 43300 (MRSA); +50 μM compound) was 1.

With c1cnc2ccc3ncccc3c2c1 [Compound V-2] the IC50 ([1]; 30 h) was 84.6 µM, the “Oxacillin MIC” value (S. aureus 43300 (MRSA); +100 μM compound) was 32 µg/mL and the “Fold Reduction” value (S. aureus 43300 (MRSA); +100 μM compound) was 1. For the same molecule, the MIC [2] was 1000 µM.

With Oc1ccnc2c1ccc1c(O)ccnc12 [Compound V-11] the IC50 ([1]; 30 h) was over 100 µM, the “Oxacillin MIC” value (S. aureus 43300 (MRSA); +62.5 μM compound) was 32 µg/mL and the “Fold Reduction” value (S. aureus 43300 (MRSA); +62.5 μM compound) was 1. The MIC [2] was 250 µM.

With O=c1c2ccccc2ccc2ccccc12 [Compound I-3] the “Oxacillin MIC” value (S. aureus 43300 (MRSA); +50 μM compound) was 16 µg/mL and the “Fold Reduction” value (S. aureus 43300 (MRSA); +50 μM compound) was 1.

Clc1ccc2c(c1)N(Cc1ccccc1)c1ccccc1CC2 [II-6] was tested, and the “Oxacillin MIC” value (S. aureus 43300 (MRSA); +50 μM compound) was 32 µg/mL and the “Fold Reduction” value (S. aureus 43300 (MRSA); +50 μM compound) was 1.

With CCCCCN1c2ccccc2CCc2ccc(Cl)cc21 [II-3] the “Oxacillin MIC” value (S. aureus 43300 (MRSA); +50 μM compound) was 16 µg/mL and the “Fold Reduction” value (S. aureus 43300 (MRSA); +50 μM compound) was 2.

c1ccc(-c2ccccn2)nc1 [Compound V-1] was tested, and the IC50 ([1]; 30 h) was over 100 µM, the “Oxacillin MIC” value (S. aureus 43300 (MRSA); +100 μM compound) was 32 µg/mL and the “Fold Reduction” value (S. aureus 43300 (MRSA); +100 μM compound) was 1. It also gave an MIC [2] of over 2000 µM.

In the case of C1=Cc2ccccc2Nc2ccccc21 [Compound I-4], the “Oxacillin MIC” value (S. aureus 43300 (MRSA); +50 μM compound) is reported as 16 µg/mL and the “Fold Reduction” value (S. aureus 43300 (MRSA); +50 μM compound) is reported as 1.

In the case of CCCCCCCCCN1CCC(=C2c3ccc(Cl)cc3CCc3cccnc32)CC1 [III-3, 8-chloro-11-(1-nonylpiperidin-4-ylidene)-6,11-dihydro-5H-benzo[5,6]cyclohepta[1,2-b]pyridine], the IC50 [1, 3] is reported as over 80 µM and the “Fold Reduction” value (S. aureus 43300 (MRSA); +50 μM compound) is reported as 1.

In the case of O=[N+]([O-])c1cc2cccnc2c2ncccc12 [Compound V-7], the IC50 ([1]; 30 h) is reported as over 100 µM, the “Oxacillin MIC” value (S. aureus 43300 (MRSA); +7.8125 μM compound) is reported as 16 µg/mL and the “Fold Reduction” value (S. aureus 43300 (MRSA); +7.8125 μM compound) is reported as 2. The MIC [2] was 31.25 µM.

For CC(C)c1ccc(CN2CCC(=C3c4ccc(Cl)cc4CCc4cccnc43)CC2)cc1 [III-5, 8-chloro-11-(1-(4-isopropylbenzyl)piperidin-4-ylidene)-6,11-dihydro-5H-benzo[5,6]cyclohepta[1,2-b]pyridine], the IC50 [1, 3] was 62.2 µM and the “Fold Reduction” value (S. aureus 43300 (MRSA); +50 μM compound) was 16.

With CCCCCCCCN1c2ccccc2CCc2ccc(Cl)cc21 [II-4] the “Oxacillin MIC” value (S. aureus 43300 (MRSA); +50 μM compound) was 32 µg/mL and the “Fold Reduction” value (S. aureus 43300 (MRSA); +50 μM compound) was 1.

For CCN1c2ccccc2CCc2ccc(Cl)cc21 [II-2], the “Oxacillin MIC” value (S. aureus 43300 (MRSA); +50 μM compound) was 32 µg/mL and the “Fold Reduction” value (S. aureus 43300 (MRSA); +50 μM compound) was 1.

For c1ccc(-c2ccnc3c2ccc2c(-c4ccccc4)ccnc23)cc1 [Compound V-13], the IC50 ([1]; 30 h) was over 100 µM, the “Oxacillin MIC” value (S. aureus 43300 (MRSA); +[…] compound) was 16 µg/mL and the MIC [2] was 6.25 µM.
